US10190093B2, “Artificial oocyte activation” (The Curators of the University of Missouri, priority 2013, dated 2019)
Marks after values point to notes of the source that are not given here.

Experiments:
MII oocytes = experiment: Intracellular calcium measurement (fura-2); assay type: cell-based, pig; settings: oocytes incubated with thimerosal, positive control
Experimental: The zonae pellucidae were removed after maturation and zona-free oocytes were loaded with the Ca^2+ indicator dye, fura-2. For this purpose, they were incubated in the presence of […] of the acetoxymethyl ester form of the dye and 0.02% pluronic F-127 for 40-50 min (both from Invitrogen). The dye loaded oocytes were transferred into a chamber with a cover-glass bottom and the chamber was then placed on the heated stage of an inverted microscope. Changes in the intracellular free Ca^2+ concentration were recorded using InCytIm2, a dual-wavelength fluorescence imaging system (Intracellular Imaging, Inc.; Cincinnati, Ohio). During measurements the emitted fluorescence was detected at 510 nm after exciting the dye alternately at 340 and 380 nm. The ratio of the two emitted fluorescence intensities was calculated and the data are presented as fluorescence ratio values. Ratios of 1.0 and 5.0 correspond to about 100 and 1,200 nM Ca^2+, respectively. In each treatment group the measurements were repeated at least 5 times using different oocytes.

SCNT embryos = experiment: In vitro development of SCNT embryos treated with Scriptaid or TPEN; assay type: cell-based, pig; settings: SCNT + Scriptaid
Experimental: Activated oocytes were washed three times in PZM3 then incubated at 38.5° C., 5% CO2 until the embryos were examined on either day 2, 6 or 7. At the end of the culture, where applicable, the frequency of cleaved embryos and blastocysts, and total cell number in the blastocysts were recorded. Hoechst 33342 (1.2 mg/mL) was used to stain nuclei and the embryos were then evaluated by epi-fluorescence microscopy.
Next, the optimal concentration and duration of TPEN ([…], 30 min) was used to artificially activate reconstructed SCNT embryos. […] Thus lower concentrations of TPEN (5-10 μM) can enhance embryo development when introduced after conventional oocyte activation.

Row | Compound | intracellular Ca2+ increase (MII oocytes) | % blastocysts (SCNT embryos) [%^b]
1 | C[CH2][Hg][S]c1ccccc1C(=O)[O-].[Na+] [thimerosal] | could induce Ca^2+ increase | 
2 | O=C(CCCCCN1C(=O)c2cccc3cccc(c23)C1=O)NO [Scriptaid] |  | 22.7
